Three molecules from patent US8735446B2, “Vanillin acetals and sensory stimulant composition containing the same” (Takasago International Corporation, priority 2005, dated 2014) can be followed below.

Structures are written as SMILES.

The test system of one experiment is ten expert panelists. In words: Sensory Evaluation 1: oral evaluation of 10 ppm aqueous solutions. It counts as in vivo, human. More on the design: key to Instantaneous sensation: ⊚: very fast; ◯: fast; Δ: is somewhat slow; x: slow. To be noted: for Instantaneous sensation / Intensity: oral evaluation, 10 ppm aqueous solution, warming sensation and pungent taste, average of ten panelists; for Intensity: scale 5 very strong, 4 strong, 3 weak, 2 very weak, 1 not able to feel. How it is done:
Compound A and Compound C obtained in Example 1 and Example 3, respectively, were subjected to oral evaluation using 10 ppm aqueous solutions of them by ten expert panelists having 5 or more year experience, and an instantaneous sensation and an intensity of warming sensation and pungent taste were evaluated on the basis of the following evaluation criteria. On the sensory evaluation, 4-(l-methoxymethyl)-2-(3′-methoxy-4′-hydroxyphenyl)-1,3-dioxolan (Comparative compound A: the compound described in JP-A-8-225564) was used as a comparative compound. The evaluation results in the table show the average value of ten panelists.

For the next experiment, the system named is skin. In words: warm sensation and stimulating effect on the skin. The experiment is classed as in vivo, human.

Turning to `COCC1COC(c2ccc(O)c(OC)c2)O1` (stereo not drawn) [Comparative compound A, 4-(l-methoxymethyl)-2-(3′-methoxy-4′-hydroxyphenyl)-1,3-dioxolan, reference compound], in the experiment with ten expert panelists, the “pungent and warming effect in the mouth” value is “strong pungent and warming effect in the mouth”; the Instantaneous sensation entry was “Δ”; the Intensity is on record as 2.8. In addition, the “warm sensation and stimulating effect on the skin” value in the experiment on skin was “strong warm sensation and stimulating effect on the skin”.

For the molecule `CCCCC1COC(c2ccc(O)c(OC)c2)O1` (stereo not drawn) [Compound A, vanillin-1,2-hexylene glycol acetal], in the experiment on ten expert panelists, the “pungent and warming effect in the mouth” value is “strong pungent and warming effect in the mouth”; the Instantaneous sensation result is “⊚”; the Intensity is on record as 4.5. Besides, the “warm sensation and stimulating effect on the skin” value in the experiment with skin is “strong warm sensation and stimulating effect on the skin”.

On to `CCCCOCC1COC(c2ccc(O)c(OC)c2)O1` (stereo not drawn) [Compound C, vanillin-1-butoxyglycerol acetal], for which, in the experiment with ten expert panelists, the “pungent and warming effect in the mouth” value was “strong pungent and warming effect in the mouth”; the Instantaneous sensation entry is recorded as “⊚”; the Intensity stood at 4.2. The “warm sensation and stimulating effect on the skin” value in the experiment on skin is “strong warm sensation and stimulating effect on the skin”.
